Assay results from patent US20260048047A1, “SMALL-MOLECULE ACTIVATORS OF MYCOBACTERIUM TUBERCULOSIS ADENYLYL CYCLASE” (priority 2022, published 2026).

Assays:
M. tuberculosis = experiment: Extracellular activity against M. tuberculosis in cholesterol media (Alamar Blue reduction assay); assay type: cell-based, Mycobacterium tuberculosis
Rv1625c = assay type: cell-based, Mycobacterium tuberculosis

SMILES | Inhibition of ΔRv1625c strain in cholesterol media (M. tuberculosis) | cAMP induction in ΔRv1625c mutant (Rv1625c) | Fold greater susceptibility of rv1625c overexpression strain (2×rv1625c) than WT (M. tuberculosis; 2×rv1625c vs WT, 7H12+cholesterol) [fold]
Cn1ncnc1CC(=O)N1CCC(c2nc(-c3ccc(Cl)c(Cl)c3)no2)CC1 [mCLB073, 1-(4-(3-(3,4-dichlorophenyl)-1,2,4-oxadiazol-5-yl)-1-piperidinyl)-2-(2-methyl-2H-1,2,4-triazol-3-yl)-1-ethanone] | refractory | – | –
Cc1nonc1CC(=O)N1CCC(n2nnc(-c3ccc(F)cc3)n2)CC1 [Compound V-59, 1-(4-(5-(4-fluorophenyl)-2H-tetrazol-2-yl)piperidin-1-yl)-2-(4-methyl-1,2,5-oxadiazol-3-yl)ethan-1-one] | refractory | did not affect | ~15
